Test results as given in patent publication US12583858B2 (Genentech, Inc., priority 2015, dated 2026).
Where two headings read alike, the source gives them in different places.

Experiments:
TDO2 = target: T1, TDO2 (Homo sapiens, UniProt P48775); test: TDO2 cell assay (NFK GreenScreen, SW48 cells); format: cell-based; conditions: SW48 cells (high TDO expressing)
T1 construct: decreased levels of NFK in SW48 cells (high TDO expressing cells)

IDO = target: T2, IDO (Homo sapiens, UniProt P14902); test: IDO cell assay (NFK GreenScreen, A172+IFNg cells); format: cell-based; conditions: A172 cells + 100 ng/ml IFNγ (high IDO expressing), 100 uM tryptophan, 24 hours; TDO selectivity table; read-out: IDO cell Fluor EC50
T2 construct: selective against A172+IFNg cells (high IDO expressing cells)
T2 sequence (P14902 whole entry): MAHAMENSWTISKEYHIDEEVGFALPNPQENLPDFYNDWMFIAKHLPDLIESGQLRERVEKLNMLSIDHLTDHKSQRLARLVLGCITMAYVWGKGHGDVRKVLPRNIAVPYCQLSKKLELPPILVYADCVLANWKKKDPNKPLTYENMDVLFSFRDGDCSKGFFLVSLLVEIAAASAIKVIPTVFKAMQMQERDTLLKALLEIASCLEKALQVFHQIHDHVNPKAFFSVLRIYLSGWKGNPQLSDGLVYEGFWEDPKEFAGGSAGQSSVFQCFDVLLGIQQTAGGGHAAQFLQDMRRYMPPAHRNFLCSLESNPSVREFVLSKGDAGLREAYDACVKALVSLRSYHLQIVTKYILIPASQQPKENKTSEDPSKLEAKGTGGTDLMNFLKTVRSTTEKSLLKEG
Method: Cells are counted on a Vi-Cell (Beckman Coulter). […] The final DMSO concentration is 0.5%.
Compounds of the invention were tested for selectivity against TDO over IDO. The cell based assay described above was used to test for TDO and IDO activity.

[1] = 200 uM tryptophan, 24 hours, Table 3, read-out: TDO2 Cell Fluor EC50
[2] = TDO selectivity table, read-out: TDO2 cell Fluor EC50

T1 sequence (P48775 whole entry): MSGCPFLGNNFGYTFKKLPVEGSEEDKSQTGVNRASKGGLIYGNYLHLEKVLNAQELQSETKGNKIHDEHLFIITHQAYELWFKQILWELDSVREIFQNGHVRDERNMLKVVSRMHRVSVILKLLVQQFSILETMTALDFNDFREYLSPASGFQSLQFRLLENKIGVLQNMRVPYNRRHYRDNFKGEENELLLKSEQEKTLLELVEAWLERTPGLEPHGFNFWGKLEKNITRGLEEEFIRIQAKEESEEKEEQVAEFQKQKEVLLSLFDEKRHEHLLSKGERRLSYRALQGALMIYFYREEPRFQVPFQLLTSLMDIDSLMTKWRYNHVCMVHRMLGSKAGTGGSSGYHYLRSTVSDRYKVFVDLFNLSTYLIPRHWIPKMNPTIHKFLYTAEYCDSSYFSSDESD

| SMILES | EC50 (TDO2; [1]) | EC50 (TDO2; [2]) | EC50 (IDO) |
| --- | --- | --- | --- |
| OC1c2cnccc2CCC1C1c2ccccc2-c2cncn21 (single isomer, unassigned) [Example 04e] | 0.049 µM | 0.049 µM | 1.2 µM |
| Cn1ncc2c1CCC(C1c3ccccc3-c3cncn31)C2O (single isomer, unassigned) [Example 93a] | 0.38 µM | 0.38 µM | 13 µM |
| OC1c2cncnc2CCC1C1c2ccccc2-c2cncn21 (single isomer, unassigned) [Example 94c] | 0.11 µM | 0.11 µM | 8.4 µM |
| NS(=O)(=O)c1ccc2c(c1)CCC(C1c3ccccc3-c3cncn31)C2O (single isomer, unassigned) [Example 100g] | 0.057 µM | 0.057 µM | 1.7 µM |
| NS(=O)(=O)N1CCC(O)C(C2c3ccccc3-c3cncn32)CC1 (single isomer, unassigned) [Example 101d, 4-hydroxy-5-(5H-imidazo[5,1-a]isoindol-5-yl)azepane-1-sulfonamide] | 0.77 µM | 0.77 µM | 21 µM |
| OC1C(C2c3ccc(F)cc3-c3cncn32)CC12CCOCC2 (single isomer, unassigned) [Example 109c] | 0.23 µM | 0.23 µM | > 25 µM |
| OC1c2cnncc2CCC1C1c2ccccc2-c2cncn21 (single isomer, unassigned) [Example 112b] | 0.24 µM | 0.24 µM | 15 µM |
| NC(=O)c1ccc2c(c1)C(O)C(C1c3ccccc3-c3cncn31)CC2 (single isomer, unassigned) [Example 122a] | 0.035 µM | 0.035 µM | 2.6 µM |
| Cn1cc2c(n1)CCC(C1c3ccccc3-c3cncn31)C2O (single isomer, unassigned) [Example 130d] | 0.087 µM | 0.087 µM | 1.8 µM |
| NC(=O)c1nc2c(s1)CCC(C1c3ccccc3-c3cncn31)C2O (single isomer, unassigned) [Example 149b] | 0.055 µM | 0.055 µM | 2.1 µM |
| OC1c2[nH]ncc2CCC1C1c2ccccc2-c2cncn21 (single isomer, unassigned) [Example 157g] | 0.042 µM | 0.042 µM | 8 µM |
| O[C@@H]1CC[C@H]1[C@H]1c2ccccc2-c2cncn21 [Example 01d, (1R,2S)-2-((S)-5H-imidazo[5,1-a]isoindol-5-yl)cyclobutan-1-ol] | 0.037 µM | 0.037 µM | 2.4 µM |
| O[C@@H]1c2cncn2CC[C@H]1[C@H]1c2ccccc2-c2cncn21 [Example 07h, (7S,8S)-7-((S)-5H-imidazo[5,1-a]isoindol-5-yl)-5,6,7,8-tetrahydroimidazo[1,5-a]pyridin-8-ol] | 0.86 µM | 0.86 µM | > 25 µM |
| CCS(=O)(=O)N1CC[C@@H]([C@H]2c3ccccc3-c3cncn32)[C@H](O)C1 [Example 16a, (3S,4S)-1-(ethylsulfonyl)-4-((S)-5H-imidazo[5,1-a]isoindol-5-yl)piperidin-3-ol] | 0.11 µM | 0.11 µM | 1.2 µM |
| CC1(C)C[C@@H](O)[C@@H]1[C@H]1c2ccccc2-c2cncn21 [Example 22b, (1R,2S)-2-((S)-5H-imidazo[5,1-a]isoindol-5-yl)-3,3-dimethylcyclobutan-1-ol] | 0.016 µM | 0.016 µM | 2 µM |
| C[C@H](O)[C@H]1c2ccccc2-c2cncn21 [Example 42c, (S)-1-((R)-5H-imidazo[5,1-a]isoindol-5-yl)ethan-1-ol] | 0.25 µM | 0.25 µM | 5 µM |
| O[C@@H]1c2ccnn2CC[C@H]1[C@H]1c2ccccc2-c2cncn21 [Example 56a, (4S,5S)-5-((S)-5H-imidazo[5,1-a]isoindol-5-yl)-4,5,6,7-tetrahydropyrazolo[1,5-a]pyridin-4-ol] | 0.15 µM | 0.15 µM | 4.5 µM |
| NC(=O)c1ccc2c(c1)CC[C@@H]([C@H]1c3ccccc3-c3cncn31)[C@@H]2O [Example 60e, (5S,6S)-5-hydroxy-6-((S)-5H-imidazo[5,1-a]isoindol-5-yl)-5,6,7,8-tetrahydronaphthalene-2-carboxamide] | 0.035 µM | 0.035 µM | 1.4 µM |
| O[C@H]1c2c(Cl)cnn2CC[C@H]1[C@H]1c2ccccc2-c2cncn21 [Example 160b, (4R,5S)-3-chloro-5-((S)-5H-imidazo[5,1-a]isoindol-5-yl)-4,5,6,7-tetrahydropyrazolo[1,5-a]pyridin-4-ol] | 0.2 µM |  |  |
| Nc1cc2n(n1)CC[C@H]([C@H]1c3ccccc3-c3cncn31)[C@H]2O [Example 161a, (4R,5R)-2-amino-5-((S)-5H-imidazo[5,1-a]isoindol-5-yl)-4,5,6,7-tetrahydropyrazolo[1,5-a]pyridin-4-ol] | 18 µM |  |  |
| Nc1cc2n(n1)CC[C@@H]([C@H]1c3ccccc3-c3cncn31)[C@@H]2O [Example 161b, (4S,5S)-2-amino-5-((S)-5H-imidazo[5,1-a]isoindol-5-yl)-4,5,6,7-tetrahydropyrazolo[1,5-a]pyridin-4-ol] | 0.7 µM |  |  |
| Nc1cc2n(n1)CCC(C1c3ccccc3-c3cncn31)C2O [Example 161d, (4S,5R)-2-amino-5-((S)-5H-imidazo[5,1-a]isoindol-5-yl)-4,5,6,7-tetrahydropyrazolo[1,5-a]pyridin-4-ol] | 12 µM |  |  |
| Nc1cc2n(n1)CCC(C1c3ccccc3-c3cncn31)C2O [Example 161f, (4R,5S)-2-amino-5-((R)-5H-imidazo[5,1-a]isoindol-5-yl)-4,5,6,7-tetrahydropyrazolo[1,5-a]pyridin-4-ol] | > 25 µM |  |  |
| NC(=O)C1([C@@H](O)[C@H]2c3ccccc3-c3cncn32)CC1 [Example 165a, 1-((R)-hydroxy((R)-5H-imidazo[5,1-a]isoindol-5-yl)methyl)cyclopropane-1-carboxamide] | 16 µM |  |  |
| NC(=O)C1([C@@H](O)[C@@H]2c3ccccc3-c3cncn32)CC1 [Example 165b, 1-((R)-hydroxy ((S)-5H-imidazo[5,1-a]isoindol-5-yl)methyl)cyclopropane-1-carboxamide] | > 25 µM |  |  |
| NC(=O)C1([C@H](O)[C@@H]2c3ccccc3-c3cncn32)CC1 [Example 165d, 1-((S)-hydroxy ((S)-5H-imidazo[5,1-a]isoindol-5-yl)methyl)cyclopropane-1-carboxamide] | > 25 µM |  |  |
| CS(=O)(=O)N1CC2(CC(C3c4ccccc4-c4cncn43)C2O)C1 (stereo not drawn) [Example 183, 6-(5H-imidazo[5,1-a]isoindol-5-yl)-2-(methylsulfonyl)-2-azaspiro[3.3]heptan-5-ol] | 0.22 µM |  |  |
